From a melting point compilation (Tetko et al.; mined from patent text by program, amines drawn as free bases though some values may be those of a salt)
Residues, ends and D or L forms follow the SMILES beside them. *: point of attachment. Cbz = O=C(OCc1ccccc1)*

Compound	melting point
Cn1nc(C2CCCC2)cc1N	149 to 150 °C
O=C(Oc1cc(/C=C/c2ccc(O)cc2)cc(OC(=O)c2cc(O)c(O)c(O)c2)c1)c1cc(O)c(O)c(O)c1	210 to 212 °C
COC(=O)C1=C(C)NC(C)=C(C(=O)NCCOC(=O)N2CCC3(CC2)CC(=O)N(OC)C3=O)C1c1cccc([N+](=O)[O-])c1 (configuration not stated)	107 to 113 °C
COC(=O)C(Cc1ccccc1)NC(=O)C(CC(N)=O)NC(=O)C(CO)NC(=O)OCc1ccccc1 (stereo not drawn) (Cbz-Ser-Asn-Phe-OMe; configuration not given here)	180 to 183 °C
COc1cc(S)c(C(C)=O)c(OC)c1	57 to 59 °C
COc1ccccc1N(CC(=O)N(C)c1ccccc1)C(=O)CNC(=O)Nc1cccc(C)c1	212 °C
Cc1c2c(c(C)c3c1NC(C)(C)C3)OC(C)(CI)C2 (configuration not stated)	100 to 104 °C
Cc1ccc(S(=O)(=O)Nc2ccc(Oc3ccc4nc(COc5ccc(CC6SC(=O)NC6=O)cc5)n(C)c4c3)cc2)cc1 (configuration not stated)	132 to 136 °C
CC(=O)Oc1ccccc1C(=O)NC(Oc1ccc2ccccc2c1)C(Cl)(Cl)Cl (configuration not stated)	158 to 160 °C
CCOC(=O)COc1cc(C)nc2c(OCc3c(Cl)ccc(N(C)C(=O)CNC(=O)C=Cc4ccc(C(=O)NC)cc4)c3Cl)cccc12	134 to 147 °C
CC[C@H]1CN(c2c(F)c(N)c3c(=O)c(C(=O)O)cn(C4CC4)c3c2F)C[C@H]1CNCCC(=O)C(F)(F)F (relative stereo)	145 to 146 °C
Cc1snc(O)c1C#N	205 °C
CC(=O)OC1C(N2CCCCC2)CC2C3CCC4CCC(N5CCCCC5)CC4(C)C3CCC21C (configuration not stated)	156 to 161 °C
Cc1cc(S(C)(=O)=O)c(S(C)(=O)=O)cc1C(=O)O	234 to 235 °C
CC(N)c1ccc2c(c1)CCCN2C(=O)OC(C)(C)C (configuration not stated)	73 to 75 °C
CCN1c2ncccc2C(NC)=Nc2c(C)cc(C)nc21	128 to 130 °C
COc1ccc(/C=C(\C)[N+](=O)[O-])cc1OCc1ccccc1	102 to 104 °C
COC(=O)C=CC(=O)NC(N)=O	112 to 114 °C
O=C(Nc1ccc(N2CCOCC2=O)cc1)[C@H]1CCCN1C(=O)c1ccc(Cl)s1	195 °C
CCCCC1NC(C(=O)O)CS1 (mixture of isomers)	195 °C
Cc1[nH]c(=O)[nH]c1C(=O)C1CC1	272 to 273 °C
O=[N+]([O-])c1ccc(Nc2ccc(C(F)(F)C(F)(F)C(F)(F)C(F)(F)C(F)(F)C(F)(F)F)cc2)c([N+](=O)[O-])c1	145 to 146 °C
NC(=O)C1(c2ccn(C(CC(=O)OCc3ccccc3)C(=O)NC(CO)Cc3ccccc3)c2)C=CC(c2ccccc2)=CC1 (configuration not stated)	192 to 194 °C
O=C(O)C=Cc1cccc(Oc2ccccc2)c1	107 to 109 °C
CCCCCCCCCCC=CCc1c[nH]c(C=O)c1	29 to 32 °C
COc1c(C)c(C)c(OC)c(CC/C(C)=C/CO)c1C	46 °C
O=C1C=C(NC(=O)C(=O)c2cn(Cc3ccc(Cl)cc3)c3cccc(CO)c23)CO1	238 to 240 °C

Next, values leading:

melting point	Compound
95 to 97 °C	Cc1ccc2onc(O)c2c1
255 to 257 °C	CCOC(=O)c1cn(NC=O)c2cc3c(cc2c1=O)OCO3
257 to 261 °C	Nc1nc2c(sc(=O)n2CC2CCCO2)c(=O)[nH]1 (configuration not stated)
146 °C	c1ccc(C2CCNC3=NCCN32)cc1 (configuration not stated)
190 to 192 °C	CCOC(=O)NNc1ccc(-c2ccc(Cl)cc2)nn1
155 to 156 °C	Cn1cc2c(ncn3nc(-c4ccco4)nc23)n1
235 to 237 °C	CC(=O)N1CCC(Nc2ncc3cc(-c4ccccc4C)c(=O)n(C4CCOCC4)c3n2)CC1
127 to 130 °C	CNc1cc(Oc2ccc(NC(=O)Nc3ccc(-c4ccncc4)c(C(F)(F)F)c3)cc2)ncn1
150 °C	Cc1cccc2c1CCn1ncnc1C2=C1CCN(C)CC1
219 to 221 °C	O=C(c1ccc(-c2cc[nH]n2)cc1)N1Cc2cccn2Cc2ccccc21
90 to 97 °C	COc1cc(N2CCCN(C3CCN(C)CC3)CC2)ccc1Nc1ncc2ccc(-c3ccccc3N(C)S(C)(=O)=O)n2n1
98 to 99 °C	Cc1oc(-c2ccc(Cl)cc2)nc1COc1cccc(/C=C/C(C)N(O)C(N)=O)c1 (configuration not stated)
100 to 102 °C	COc1ccc(C(C)N(C)CCCOc2ccc(S(=O)(=O)C3=C(C(C)C)N(C)CC3)cc2)cc1OC (configuration not stated)
98 °C	COc1cccc(C2C=C(C)NC(CN3C(=O)c4ccccc4C3=O)=C2)c1[N+](=O)[O-] (configuration not stated)
249 to 255 °C	CC(C)NC(=O)c1c[nH]c2ncc(-c3nn(CCCN(C)C)c4cc(Cl)cc(F)c34)nc12
75 to 79 °C	CCCc1cccc(C2(c3ccc(OC(F)(F)F)cc3)N=C(N)N3CCCN=C32)c1 (configuration not stated)
136 °C	O=S(=O)(Nc1ccccc1O)c1ccc2ccccc2c1
242 to 244 °C	CC(C)C1(C)N=C(c2nc3ccsc3cc2C(=O)O)NC1=O (configuration not stated)
90 to 92 °C	Cc1ccc(C)c(OCCCC(C)(C)C(=O)Nc2cccc(-c3nnc(C)o3)c2)c1
200 to 201 °C	Cc1c(NC(=O)c2ccc(-c3ccc(F)cc3)cc2)ccc2cc(CN3CCC(CC(=O)N(C)C)CC3)cnc12

melting point	Compound
149 to 150 °C	COc1cc(S(=O)(=O)c2ccccc2)ccc1N
222 °C	O=C(Nc1nc(C(F)(F)F)co1)C1c2ccccc2Oc2ccccc21
232 to 234 °C	COC(=O)Nc1nc(C)c(-c2nc3ccccc3c(=O)n2-c2ccc(C(C)=O)cc2)s1
101 to 102 °C	Cc1oc(-c2ccccc2)nc1C(C)O (configuration not stated)
106 to 109 °C	CCc1nn(C2CCCC2)c2cc(C(=O)OC)ccc12
79 to 80 °C	COc1ccc2c(c1)c1c(n2CCCN(C)C)CCCSCC1
102 to 103 °C	CN1C[C@@H](C(=O)OC(C)(C)C)N(C(=O)OCc2ccccc2)C1=O
188 to 190 °C	CC1(N)CCN(c2ncc3ncnc(Nc4ccc(F)c(Cl)c4)c3n2)CC1
200 °C	Cn1ccnc1SCCN1CCC(=C2c3ccn(C)c3CCn3ccnc32)CC1
248 °C	Cc1nc(NC(=O)c2cnn3c(C(F)F)cc(-c4ccc(C(F)(F)F)cc4)nc23)sc1S(=O)(=O)NC(C)(CO)CO
139 to 140 °C	O=C(Nc1ccc(-n2nc(C(F)(F)F)cc2C(F)(F)F)cc1)c1sccc1Br
263 to 265 °C	NC(=O)c1cccc(-c2ccc3nnn(Cc4ccc5ncccc5c4)c3n2)c1
93.1 to 94.7 °C	CCOC(=O)C1=Cc2cc(C)ccc2SC1C(F)(F)F (configuration not stated)
155 to 158 °C	COc1cc(-c2[nH]c3ccc(OCc4ccccc4)cc3c2C)ccc1OCc1ccccc1
262 °C	CN1CCN(C(=O)C(c2ccc(Cl)cc2)c2c(Cl)cc(-n3ncc(=O)[nH]c3=O)cc2Cl)CC1 (configuration not stated)
188 °C	NC1=NN(c2cccc(Cl)n2)C(c2ccccc2)C1 (configuration not stated)
157 to 159 °C	O=c1oc2ccccc2c(O)c1CCOc1ccccc1
60 to 63 °C	CN(C1CCCCC1)S(=O)(=O)c1ccc(CCSn2cnc3ccccc32)cc1
151 to 153 °C	CC1(C)Cc2cc(NC(N)=O)c3c(c2C(c2ccccc2)=N1)CC(C)(C)O3
244 to 246 °C	CC(C)(C)C(NC(=O)c1ccc(Cl)cc1)Nc1c(Nc2ccncc2)c(=O)c1=O (configuration not stated)
